As usually defined, the half-life is the time in which the quantity being followed falls by half. A high value points to slow loss. As a reminder, the Papp A→B is the apparent permeability from the apical to the basolateral side of a cell layer. One may read the Papp B→A as the apparent permeability from the basolateral to the apical side of a cell layer. As usually defined, the efflux ratio is the permeability from basolateral to apical divided by that in the opposite direction, in the common usage. A word on the EC50: it is the concentration at which the effect is half-maximal.

Active and inactive are the calls of the source. No cut-off for these calls is given here.

Series [1] has as its target T1, Protein-glutamine gamma-glutamyltransferase (Homo sapiens) (UniProt P21980).
T1 sequence (whole entry): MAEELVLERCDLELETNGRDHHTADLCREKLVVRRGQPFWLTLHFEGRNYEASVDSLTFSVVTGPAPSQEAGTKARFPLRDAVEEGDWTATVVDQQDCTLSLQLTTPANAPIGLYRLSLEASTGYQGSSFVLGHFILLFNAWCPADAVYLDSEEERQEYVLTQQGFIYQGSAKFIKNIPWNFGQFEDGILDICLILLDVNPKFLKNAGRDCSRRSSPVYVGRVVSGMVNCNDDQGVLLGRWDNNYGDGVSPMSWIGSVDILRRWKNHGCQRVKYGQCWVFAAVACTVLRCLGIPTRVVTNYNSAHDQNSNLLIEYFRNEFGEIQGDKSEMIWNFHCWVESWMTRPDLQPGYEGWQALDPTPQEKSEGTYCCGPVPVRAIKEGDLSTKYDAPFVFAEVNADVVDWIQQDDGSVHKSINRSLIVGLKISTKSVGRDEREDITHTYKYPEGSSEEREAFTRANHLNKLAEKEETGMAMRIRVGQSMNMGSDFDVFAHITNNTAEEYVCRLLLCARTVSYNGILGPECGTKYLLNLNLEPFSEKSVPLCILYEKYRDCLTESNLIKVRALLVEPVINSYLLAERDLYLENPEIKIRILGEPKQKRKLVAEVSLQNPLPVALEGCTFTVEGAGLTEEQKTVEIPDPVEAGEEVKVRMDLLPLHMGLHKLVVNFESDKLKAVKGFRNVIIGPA
The experiment in a line: Inhibition of TG2 (unknown origin) using Cbz-Glu(gamma-p-nitrophenyl ester)Gly (AL5) as substrate assessed as Kinact/Ki ratio and measured by colorimetric assay.

Series [2] has as its target T1, Protein-glutamine gamma-glutamyltransferase (Homo sapiens). The experiment in a line: Inhibition of TG2 (unknown origin) using Cbz-Glu(gamma-p-nitrophenyl ester)Gly (AL5) as substrate and measured by colorimetric assay.
Series [3] has the same target. The series can be described thus: Inhibition of GTP binding to TG2 (unknown origin) measured by GTP Gamma-S-FL BODIPY assay.
Series [4] is described as follows: Half-life in plasma (unknown origin). It is filed as ADME, cell-free.
The nature of series [5]: Plasma protein binding (unknown origin). The class given is ADME, cell-free. As to conditions: read-out: PPB (converted).
Series [6] is described as follows: Plasma protein binding (unknown origin) assessed as drug recovery. The class given is ADME, cell-free. To be noted: read-out: Drug recovery.
Series [7] concerns MDR1 (P-gp). The experiment in a line: Apparent permeability from apical to basolateral side in dog MDCK-MDR1 cells. It is filed as ADME, cell-based, Canis lupus familiaris.
Series [8] concerns MDR1 (P-gp). The experiment in a line: Apparent permeability from basolateral to apical side in dog MDCK-MDR1 cells. The class given is ADME, cell-based, Canis lupus familiaris.
Series [9] deals with MDR1 (P-gp). The series can be described thus: Efflux ratio of apparent permeability in dog MDCK-MDR1 cells. It is filed as ADME, cell-based, Canis lupus familiaris.
Series [10] deals with P-gp. The series can be described thus: Substrate activity at P-gp in dog MDCK cells assessed as apparent permeability across apical to basolateral membrane. The class given is ADME, cell-based, Canis lupus familiaris. As to conditions: MDCK-MDR1.
The subject of series [11] is P-gp. The experiment in a line: Substrate activity at P-gp in dog MDCK cells assessed as apparent permeability across basolateral to apical membrane. The class given is ADME, cell-based, Canis lupus familiaris. As to conditions: MDCK-MDR1.
Series [12] concerns P-gp. The experiment in a line: Substrate activity at P-gp in dog MDCK cells assessed as efflux ratio. It is filed as ADME, cell-based, Canis lupus familiaris. As to conditions: MDCK-MDR1.
Series [13] can be described thus: Anti-invasion activity against human SCC-13 cells assessed as inhibition of invasion incubated for 18 hrs by matrigel trans well plate assay. The class given is functional, cell-based. To be noted: SCC-13, 18 h.

For `C=CC(=O)NCCCC[C@H](NC(=O)Cc1ccccc1F)C(=O)N1CCN(C(=O)c2cccc3ccccc23)CC1`, the Ratio in series [1] was 443 10^3/M/min. Also, the Kinact in series [2] worked out at 0.46 min⁻¹. The inhibition entry in series [3] is “Active”. Also, in [4], the half-life was determined as 17.9 h. Moreover, in series [5], the fraction unbound is 0.16. Besides, the recovery in series [6] was determined as 86%. Moreover, the apparent permeability from apical to basolateral (Papp A→B) turned out to be 0.29 ×10⁻⁶ cm/s in the series on MDR1 (P-gp) [7] and 2.2 ×10⁻⁶ cm/s in the series on P-gp [10]. The Papp B→A in the series with MDR1 (P-gp) [8] was found to be 18.2 ×10⁻⁶ cm/s; in the series on P-gp [11], 2.8 ×10⁻⁶ cm/s. Moreover, the efflux ratio in the series on MDR1 (P-gp) [9] is 61.7; with P-gp [12], 1.3. In [13], the EC50 came out at 77 µM.

These data come from ChEMBL document CHEMBL5154739, “Structure-activity relationships of N-terminal variants of peptidomimetic tissue transglutaminase inhibitors” (Eur J Med Chem, 2022).
